# In US20110086759A1, “CHEMICAL COMPOUNDS” (SYNGENTA CROP PROTECTION, INC., priority 2007, published 2011):
# Experiments:
# Type in all cases: in vivo
# [1] = tested on: Echinochloa crus-galli (ECHCG); experiment: Post-emergence biological efficacy, glasshouse pot test; settings: 312 h
# Method in brief: (§1)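 Pot-grown weeds were sprayed 8 days after sowing with test compound in acetone/water (50:50) with 0.5% Tween 20 at 1000 or 250 g/ha. Glasshouse at 24/16° C day/night, 14 h light, 65% humidity. Damage scored 0-100 (100 = total damage) after 13 days.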
# [2] = tested on: Ipomea hederaceae (IPOHE); experiment: as above; settings: Ipomoea hederacea, 312 h
# Method in brief: as §1
# Setaria faberi (SETFA) [3] = experiment: as above; settings: 312 h
# Method in brief: as §1
# [4] = tested on: Alopecurus myosuroides (ALOMY); experiment: as above; settings: 312 h
# Method in brief: as §1
# [5] = tested on: Amaranthus retoflexus (AMARE); experiment: as above; settings: Amaranthus retroflexus, 312 h
# Method in brief: as §1
# Solanum nigrum (SOLNI) [6] = experiment: as above; settings: 312 h
# Method in brief: as §1
# [7] = tested on: Echinochloa crus-galli (ECHCG); experiment: Pre-emergence biological efficacy, glasshouse pot test; settings: 312 h
# Method in brief: (§2)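 Glasshouse pot test: spray on soil one day after sowing, 1000 or 250 g/ha. Conditions 24/16 °C day/night, 14 h light, 65% humidity. Plant damage scored 0–100 at 13 days.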
# [8] = tested on: Ipomea hederaceae (IPOHE); experiment: as above; settings: Ipomoea hederacea, 312 h
# Method in brief: as §2
# Setaria faberi (SETFA) [9] = experiment: as above; settings: 312 h
# Method in brief: as §2
# [10] = tested on: Alopecurus myosuroides (ALOMY); experiment: as above; settings: 312 h
# Method in brief: as §2
# [11] = tested on: Amaranthus retoflexus (AMARE); experiment: as above; settings: Amaranthus retroflexus, 312 h
# Method in brief: as §2
# Solanum nigrum (SOLNI) [12] = experiment: as above; settings: 312 h
# Method in brief: as §2
# [13] = post-emergence, 1,000 g/ha, evaluated after 13 days (100=total damage; 0=no damage), read-out: Percentage damage caused to weed species, ECHCG
# [14] = post-emergence, 1,000 g/ha, evaluated after 13 days (100=total damage; 0=no damage), read-out: Percentage damage caused to weed species, IPOHE
# [15] = post-emergence, 1,000 g/ha, evaluated after 13 days (100=total damage; 0=no damage), read-out: Percentage damage caused to weed species, SETFA
# [16] = post-emergence, 1,000 g/ha, evaluated after 13 days (100=total damage; 0=no damage), read-out: Percentage damage caused to weed species, ALOMY
# [17] = post-emergence, 1,000 g/ha, evaluated after 13 days (100=total damage; 0=no damage), read-out: Percentage damage caused to weed species, AMARE
# [18] = post-emergence, 1,000 g/ha, evaluated after 13 days (100=total damage; 0=no damage), read-out: Percentage damage caused to weed species, SOLNI
# [19] = pre-emergence, 1,000 g/ha, evaluated after 13 days (100=total damage; 0=no damage), read-out: Percentage damage ECHCG
# [20] = pre-emergence, 1,000 g/ha, evaluated after 13 days (100=total damage; 0=no damage), read-out: Percentage damage IPOHE
# [21] = pre-emergence, 1,000 g/ha, evaluated after 13 days (100=total damage; 0=no damage), read-out: Percentage damage SETFA
# [22] = pre-emergence, 1,000 g/ha, evaluated after 13 days (100=total damage; 0=no damage), read-out: Percentage damage ALOMY
# [23] = pre-emergence, 1,000 g/ha, evaluated after 13 days (100=total damage; 0=no damage), read-out: Percentage damage AMARE
# [24] = pre-emergence, 1,000 g/ha, evaluated after 13 days (100=total damage; 0=no damage), read-out: Percentage damage SOLNI
# [25] = Rate 1,000 g/ha, post-emergence spray, evaluated after 13 days (100=total damage to plant; 0=no damage to plant), read-out: Percentage damage caused to weed species, post-emergence, ECHCG
# [26] = Rate 1,000 g/ha, post-emergence spray, evaluated after 13 days (100=total damage to plant; 0=no damage to plant), read-out: Percentage damage caused to weed species, post-emergence, IPOHE
# [27] = Rate 1,000 g/ha, post-emergence spray, evaluated after 13 days (100=total damage to plant; 0=no damage to plant), read-out: Percentage damage caused to weed species, post-emergence, SETFA
# [28] = Rate 1,000 g/ha, post-emergence spray, evaluated after 13 days (100=total damage to plant; 0=no damage to plant), read-out: Percentage damage caused to weed species, post-emergence, ALOMY
# [29] = Rate 1,000 g/ha, post-emergence spray, evaluated after 13 days (100=total damage to plant; 0=no damage to plant), read-out: Percentage damage caused to weed species, post-emergence, AMARE
# [30] = Rate 1,000 g/ha, post-emergence spray, evaluated after 13 days (100=total damage to plant; 0=no damage to plant), read-out: Percentage damage caused to weed species, post-emergence, SOLNI
# [31] = pre-emergence, rate 1,000 g/ha, evaluated after 13 days (100=total damage to plant; 0=no damage), read-out: Percentage damage caused to weed species, ECHCG
# [32] = pre-emergence, rate 1,000 g/ha, evaluated after 13 days (100=total damage to plant; 0=no damage), read-out: Percentage damage caused to weed species, IPOHE
# [33] = pre-emergence, rate 1,000 g/ha, evaluated after 13 days (100=total damage to plant; 0=no damage), read-out: Percentage damage caused to weed species, SETFA
# [34] = pre-emergence, rate 1,000 g/ha, evaluated after 13 days (100=total damage to plant; 0=no damage), read-out: Percentage damage caused to weed species, ALOMY
# [35] = pre-emergence, rate 1,000 g/ha, evaluated after 13 days (100=total damage to plant; 0=no damage), read-out: Percentage damage caused to weed species, AMARE
# [36] = pre-emergence, rate 1,000 g/ha, evaluated after 13 days (100=total damage to plant; 0=no damage), read-out: Percentage damage caused to weed species, SOLNI
Structure (SMILES),"pest or weed control at 1000 g/ha [1, 13]","pest or weed control at 1000 g/ha [2, 14]",pest or weed control at 1000 g/ha (Setaria faberi (SETFA) [3]; [15]),"pest or weed control at 1000 g/ha [4, 16]","pest or weed control at 1000 g/ha [5, 17]",pest or weed control at 1000 g/ha (Solanum nigrum (SOLNI) [6]; [18]),"pest or weed control at 1000 g/ha [7, 19]","pest or weed control at 1000 g/ha [8, 20]",pest or weed control at 1000 g/ha (Setaria faberi (SETFA) [9]; [21]),"pest or weed control at 1000 g/ha [10, 22]","pest or weed control at 1000 g/ha [11, 23]",pest or weed control at 1000 g/ha (Solanum nigrum (SOLNI) [12]; [24]),other results
"COC(=O)c1nc(C2CC2)nc(N[C@H](C)[C@@H](O)c2ccccc2)c1Cl [4-270 (erythro), 5-Chloro-2-cyclopropyl-4-(erythro-2-hydroxy-1-methyl-2-phenyl-ethylamino)-6-methoxycarbonyl-pyrimidine]",60%,100%,80%,30%,100%,80%,30%,100%,30%,30%,80%,80%,
"COC(=O)c1nc(C2CC2)nc(NCc2cccc(C)c2)c1Cl [Compound 4-72, 5-Chloro-2-cyclopropyl-6-methoxycarbonyl-4-(3-methylphenyl-methylamino)-pyrimidine]",50%,100%,30%,10%,100%,100%,40%,40%,10%,10%,60%,40%,
"CCOc1ccc(CN(C)c2nc(C3CC3)nc(C(=O)OC)c2Cl)cc1OCC [Compound 5-114, 5-Chloro-2-cyclopropyl-4-[N-(3,4-diethoxy-phenylmethyl)-N-methyl-amino]-6-methoxycarbonyl-pyrimidine]",,,,,,,,,,,,,"pest or weed control at 1000 g/ha [1, 25]: 20%; pest or weed control at 1000 g/ha [2, 26]: 70%; pest or weed control at 1000 g/ha (Setaria faberi (SETFA) [3]; [27]): 40%; pest or weed control at 1000 g/ha [4, 28]: 10%; pest or weed control at 1000 g/ha [5, 29]: 100%; pest or weed control at 1000 g/ha (Solanum nigrum (SOLNI) [6]; [30]): 80%; pest or weed control at 1000 g/ha [7, 31]: 0%; pest or weed control at 1000 g/ha [8, 32]: 40%; pest or weed control at 1000 g/ha (Setaria faberi (SETFA) [9]; [33]): 20%; pest or weed control at 1000 g/ha [10, 34]: 0%; pest or weed control at 1000 g/ha [11, 35]: 70%; pest or weed control at 1000 g/ha (Solanum nigrum (SOLNI) [12]; [36]): 20%"
"COC(=O)c1nc(C2CC2)nc(NCc2ccc(Cl)cc2F)c1Cl [Compound 4-101, 5-Chloro-4-(4-chloro-2-fluoro-phenylmethyl-amino)-2-cyclopropyl-6-methoxycarbonyl-pyrimidine]",50%,100%,90%,30%,100%,100%,30%,70%,10%,10%,70%,30%,
"COC(=O)c1nc(C2CC2)nc(NC(c2ccccc2)c2ccccc2)c1Cl [Compound 4-277, 5-Chloro-2-cyclopropyl-4-(diphenylmethyl-amino)-6-methoxy-carbonylpyrimidine]",50%,70%,50%,30%,90%,50%,0%,40%,0%,0%,0%,0%,
"COC(=O)c1nc(C2CC2)nc(N[C@@H](Cc2ccc(Cl)cc2)C(=O)OC)c1Cl [4-285 (S), 5-Chloro-4-[(1S)-2-(4-chlorophenyl)-1-methoxycarbonyl-ethylamino]-2-cyclopropyl-6-methoxycarbonyl-pyrimidine]",20%,90%,40%,20%,100%,90%,30%,70%,20%,20%,90%,90%,
"COC(=O)c1nc(C2CC2)nc(NC2(/C=C/c3ccccc3F)CC2)c1Cl [Compound 4-27, 5-Chloro-2-cyclopropyl-4-{1-[2-(2-fluorophenyl)-ethenyl]-cyclo-propylamino}-6-methoxycarbonyl-pyrimidine]",60%,100%,70%,10%,100%,80%,0%,80%,0%,10%,40%,10%,
"O=C(NCc1ccco1)c1nc(C2CC2)nc(NCc2ccco2)c1Cl [Compound 265-3, 5-Chloro-2-cyclopropyl-4-(furan-2-ylmethylamino)-6-(furan-2-yl-methylamino-carbonyl)-pyrimidine]",,,,,,,,,,,,,"pest or weed control at 1000 g/ha [1, 25]: 30%; pest or weed control at 1000 g/ha [2, 26]: 70%; pest or weed control at 1000 g/ha (Setaria faberi (SETFA) [3]; [27]): 20%; pest or weed control at 1000 g/ha [4, 28]: 20%; pest or weed control at 1000 g/ha [5, 29]: 70%; pest or weed control at 1000 g/ha (Solanum nigrum (SOLNI) [6]; [30]): 70%; pest or weed control at 1000 g/ha [7, 31]: 30%; pest or weed control at 1000 g/ha [8, 32]: 90%; pest or weed control at 1000 g/ha (Setaria faberi (SETFA) [9]; [33]): 40%; pest or weed control at 1000 g/ha [10, 34]: 20%; pest or weed control at 1000 g/ha [11, 35]: 60%; pest or weed control at 1000 g/ha (Solanum nigrum (SOLNI) [12]; [36]): 60%"
